The target in the test is T1, EGFR del746-750 T790M (Homo sapiens, UniProt P00533, DEL746-750/T790M).
T1 construct: purchased Carna Biosciences 08-528
T1 sequence (P00533 with tags, fused parts or gaps DEL746-750/T790M limits assumed): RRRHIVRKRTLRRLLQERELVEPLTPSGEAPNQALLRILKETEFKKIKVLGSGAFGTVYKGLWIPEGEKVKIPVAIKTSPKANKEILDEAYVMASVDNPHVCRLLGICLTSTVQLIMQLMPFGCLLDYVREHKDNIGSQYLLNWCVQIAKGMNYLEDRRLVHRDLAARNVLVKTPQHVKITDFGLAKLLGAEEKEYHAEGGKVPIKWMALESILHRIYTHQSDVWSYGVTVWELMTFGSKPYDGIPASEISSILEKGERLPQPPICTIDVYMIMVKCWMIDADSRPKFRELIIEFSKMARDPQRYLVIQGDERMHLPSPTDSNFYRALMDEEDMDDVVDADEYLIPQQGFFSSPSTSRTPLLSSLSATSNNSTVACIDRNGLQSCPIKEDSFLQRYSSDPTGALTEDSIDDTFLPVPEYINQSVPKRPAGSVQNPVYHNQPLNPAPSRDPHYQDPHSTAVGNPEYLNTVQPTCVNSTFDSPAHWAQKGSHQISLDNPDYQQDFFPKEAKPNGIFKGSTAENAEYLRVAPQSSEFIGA
Put plainly: EGFR del746-750 T790M biochemical assay (Caliper mobility shift). Particulars: 5 μM ATP, 30 min, room temperature; apparent Ki (Morrison) converted by Cheng-Prusoff, Km of ATP 2.1 μM; read-out: EGFR(T790M/d746-750) Ki.
`CC(C)n1c(CO)nc2cnc(Nc3ccnc(-c4cnn(S(=O)(=O)C5CC5)c4)n3)cc21` [Example 272, {6-[2-(1-Cyclopropanesulfonyl-1H-pyrazol-4-yl)pyrimidin-4-ylamino]-1-isopropyl-1H-imidazo[4,5-c]pyridin-2-yl}methanol]: the Ki was determined as 2.12 nM. The result for `CO[C@@H]1CCN(c2nccc(Nc3cc4c(cn3)nc(C)n4C(C)C)n2)C[C@H]1O` (racemic) [Example 508, (±)-1-(4-((1-Isopropyl-2-methyl-1H-imidazo[4,5-c]pyridin-6-yl)amino)pyrimidin-2-yl)-4-methoxypiperidin-3-ol] reads 359 nM; that for `CCC(C)n1cc(C(=O)NC2CCN(C3COC3)CC2)c2cnc(Nc3ccnc(N4CC[C@@H](OC)[C@@H](F)C4)n3)cc21` (single isomer, unassigned) [Example 326], 3.83 nM. As to `COCc1nc2cnc(Nc3ccnc(-c4cnn(S(=O)(=O)C5CC5)c4)n3)cc2n1C(C)C` [Example 279, [2-(1-Cyclopropanesulfonyl-1H-pyrazol-4-yl)-pyrimidin-4-yl]-(1-isopropyl-2-methoxymethyl-1H-imidazo[4,5-c]pyridin-6-yl)amine], the Ki was 6.87 nM. The result for `C[C@@H](O)c1nc2cnc(Nc3ccnc(N4CCC(O)C(F)C4)n3)cc2n1[C@H](C)C(F)(F)F` (stereo partly drawn) [Example 542, 3-Fluoro-1-{4-[2-((R)-1-hydroxyethyl)-1-((R)-2,2,2-trifluoro-1-methylethyl)-1H-imidazo[4,5-c]pyridin-6-ylamino]pyrimidin-2-yl}-piperidin-4-ol] reads 101 nM; that for `CC(C)n1c(CO)nc2cnc(Nc3ccnc(N4C[C@@H]5C[C@H]4CO5)n3)cc21` [Example 691], 736 nM; that for `CC[C@H](C)n1cc(C(=O)NC2CCOCC2)c2cnc(Nc3ccnc(N4CC[C@H](OC)[C@H](F)C4)n3)cc21` (single isomer, unassigned) [Example 340], 3.33 nM. As to `CCC(C)n1cc(C(=O)NC2CCOCC2)c2cnc(Nc3ccnc(N4CCC(O)C(C)(C)C4)n3)cc21` (mixture of isomers) [Example 384, 1-(sec-butyl)-6-((2-(4-hydroxy-3,3-dimethylpiperidin-1-yl)pyrimidin-4-yl)amino)-N-(tetrahydro-2H-pyran-4-yl)-1H-pyrrolo[3,2-c]pyridine-3-carboxamide], the Ki is 5.39 nM. The result for `Cc1nc2cnc(Nc3ccnc(-c4cnn(S(=O)(=O)C5CCNC5)c4)n3)cc2n1C(C)C` (stereo not shown) [Example 258, 1-Isopropyl-2-methyl-N-(2-(1-(pyrrolidin-3-ylsulfonyl)-1H-pyrazol-4-yl)pyrimidin-4-yl)-1H-imidazo[4,5-c]pyridin-6-amine] reads 4.25 nM; that for `CC(CC(F)(F)F)n1c(CO)nc2cnc(Nc3ccnc(-c4cnn(S(=O)(=O)C5CC5)c4)n3)cc21` (stereo not shown) [Example 696], 7.67 nM; that for `C[C@H](n1c([C@@H](C)O)nc2cnc(Nc3ccnc(N4CC[C@@](C)(O)[C@@H](F)C4)n3)cc21)C(F)(F)F` (single isomer, unassigned) [Example 621, (3R*,4S*)-3-Fluoro-1-{4-[2-((R)-1-hydroxyethyl)-1-((S)-2,2,2-trifluoro-1-methylethyl)-1H-imidazo[4,5-c]pyridin-6-ylamino]pyrimidin-2-yl}-4-methylpiperidin-4-ol], 21.7 nM. The result for `CC(C)n1c(CO)nc2cnc(Nc3ccnc(N4CCC(C(F)(F)F)CC4)n3)cc21` [Example 512, (1-Isopropyl-6-((2-(4-(trifluoromethyl)piperidin-1-yl)pyrimidin-4-yl)amino)-imidazo[4,5-c]pyridin-2-yl)methanol] reads 133 nM. The result for `C[C@@H](O)c1nc2cnc(Nc3ccnc(N4CC[C@H](O)[C@H](F)C4)n3)cc2n1[C@H](C)C(F)(F)F` [Example 688] reads 107 nM.

As for `Cc1nc2cnc(Nc3ccnc(-c4cn(C)nc4N)n3)cc2n1C(C)C` [Example 363, N-(2-(3-Amino-1-methyl-1H-pyrazol-4-yl)pyrimidin-4-yl)-1-isopropyl-2-methyl-1H-imidazo[4,5-c]pyridin-6-amine], the Ki came out at 31 nM. The result for `CCNC(=O)c1cn(C(C)CC)c2cc(Nc3ccnc(N4CC[C@@H](O)[C@@H](F)C4)n3)ncc12` (single isomer, unassigned) [Example 370] reads 4.02 nM; that for `Cc1nc2cnc(Nc3ccnc(-n4cnc(S(C)(=O)=O)c4)n3)cc2n1C(C)C` [Example 337, 1-Isopropyl-2-methyl-N-(2-(4-(methylsulfonyl)-1H-imidazol-1-yl)pyrimidin-4-yl)-1H-imidazo[4,5-c]pyridin-6-amine], 524 nM.

Turning to `Cc1nc2cnc(Nc3ccnc(N4CCC5(CC4)OCCO5)n3)cc2n1C(C)C` [Example 506, N-(2-(1,4-Dioxa-8-azaspiro[4.5]decan-8-yl)pyrimidin-4-yl)-1-isopropyl-2-methyl-1H-imidazo[4,5-c]pyridin-6-amine], the Ki came to 117 nM.

For `CO[C@@H]1CCN(c2nccc(Nc3cc4c(cn3)nc([C@@H](C)O)n4C(C)C)n2)C[C@@H]1F` [Example 659], the Ki is 39.3 nM.

With `COC1CCN(c2nccc(Nc3cc4c(cn3)nc(CO)n4C(C)C)n2)CC1` [Example 10, {1-Isopropyl-6-[2-(4-methoxypiperidin-1-yl)pyrimidin-4-ylamino]-1H-imidazo[4,5-c]pyridin-2-yl}methanol], the Ki came to 63.2 nM. The result for `CCC(C)n1cc(C(=O)NC2CCCOC2)c2cnc(Nc3ccnc(N4CCC(O)C(C)(C)C4)n3)cc21` (stereo not shown) [Example 374, 1-(sec-butyl)-6-((2-(4-hydroxy-3,3-dimethylpiperidin-1-yl)pyrimidin-4-yl)amino)-N-(tetrahydro-2H-pyran-3-yl)-lH-pyrrolo[3,2-c]pyridine-3-carboxamide] reads 3.31 nM.

`Cc1nc2cnc(Nc3ccnc(N4CC[C@@H](O)C[C@H]4C)n3)cc2n1C(C)C` [Example 601]: the Ki was 50.5 nM.

With `Cc1nc2cnc(Nc3ccnc(N4CCc5[nH]ncc5C4)n3)cc2n1C(C)C` [Example 46, N-(2-(6,7-Dihydro-1H-pyrazolo[4,3-c]pyridin-5(4H)-yl)pyrimidin-4-yl)-1-isopropyl-2-methyl-1H-imidazo[4,5-c]pyridin-6-amine], the Ki came out at 8.2 nM.

On to `CC(C)n1cnc2cnc(Nc3ccnc(N4CCc5[nH]ncc5C4)n3)cc21` [Example 12, (1-Isopropyl-1H-imidazo[4,5-c]pyridin-6-yl)-[2-(1,4,6,7-tetrahydropyrazolo[4,3-c]pyridin-5-yl)pyrimidin-4-yl]amine], for which the Ki came out at 19.2 nM.

On to `Cc1nc2cnc(Nc3ccnc(-n4ccnc4)n3)cc2n1C(C)C` [Example 599, (2-Imidazol-1-ylpyrimidin-4-yl)-(1-isopropyl-2-methyl-1H-imidazo[4,5-c]pyridin-6-yl)amine], for which the Ki turned out to be 27.5 nM. For `Cc1nc2cnc(Nc3ccnc(N4CC[C@@H](O)C4)n3)cc2n1C(C)C` [Example 680] the value was 395 nM; for `Cc1nc2cnc(Nc3ccnc(-c4cn(CC5CC5)nc4Cl)n3)cc2n1C(C)C` [Example 625, N-(2-(3-Chloro-1-(cyclopropylmethyl)-1H-pyrazol-4-yl)pyrimidin-4-yl)-1-isopropyl-2-methyl-1H-imidazo[4,5-c]pyridin-6-amine], 38.6 nM; for `CC(C)n1c(CO)nc2cnc(Nc3ccnc(N4CCCCC4CCO)n3)cc21` (stereo not shown) [Example 668], 451 nM. For `Cc1nc2cnc(Nc3ccnc(-c4cnn(C)c4)n3)cc2n1C(C)C` [Example 365, 1-Isopropyl-2-methyl-N-(2-(1-methyl-1H-pyrazol-4-yl)pyrimidin-4-yl)-1H-imidazo[4,5-c]pyridin-6-amine] the value was 46.5 nM; for `CC(C)n1c(CO)nc2cnc(Nc3ccnc(N4CC[C@](C)(O)[C@H](F)C4)n3)cc21` (racemic) [Example 619, (3RS,4SR)-3-Fluoro-1-[4-(2-hydroxymethyl-1-isopropyl-1H-imidazo[4,5-c]pyridin-6-ylamino)pyrimidin-2-yl]-4-methylpiperidin-4-ol], 146 nM. With `Cc1nc2cnc(Nc3ccnc(N4CC[C@](C)(O)[C@H](F)C4)n3)cc2n1C(C)C` [Example 672], the Ki was determined as 135 nM.

On to `COC1CCN(c2nccc(Nc3cc4c(cn3)c(-c3cnn(CCO)c3)cn4C(C)C)n2)CC1` [Example 402, 2-(4-(1-isopropyl-6-((2-(4-methoxypiperidin-1-yl)pyrimidin-4-yl)amino)-1H-pyrrolo[3,2-c]pyridin-3-yl)-1H-pyrazol-1-yl)ethanol], for which the Ki stood at 0.84 nM.

In the case of `Cc1cn[nH]c1-c1cn(C(C)C)c2cc(Nc3ccnc(N4CCC(O)C(C)(C)C4)n3)ncc12` (stereo not shown) [Example 347, 1-(4-((1-Isopropyl-3-(4-methyl-1H-pyrazol-5-yl)-1H-pyrrolo[3,2-c]pyridin-6-yl)amino)pyrimidin-2-yl)-3,3-dimethylpiperidin-4-ol], the Ki turned out to be 20.5 nM. The result for `CC(C)n1cc(C(=O)NC2COC2)c2cnc(Nc3ccnc(-c4cnn(S(=O)(=O)N5CCCC5)c4)n3)cc21` [Example 388, 1-isopropyl-N-(oxetan-3-yl)-6-((2-(1-(pyrrolidin-1-ylsulfonyl)-1H-pyrazol-4-yl)pyrimidin-4-yl)amino)-1H-pyrrolo[3,2-c]pyridine-3-carboxamide] reads 29 nM; that for `CO[C@H]1CCN(c2nccc(Nc3cc4c(cn3)nc(CO)n4C(C)C)n2)C[C@H]1F` [Example 655], 60.8 nM; that for `CCC(C)n1cc(C(=O)N[C@H]2CCOC[C@H]2F)c2cnc(Nc3ccnc(N4CC[C@@H](O)[C@@H](F)C4)n3)cc21` (mixture of isomers) [Example 637, 1-(sec-butyl)-6-((2-((3S,4R)-3-fluoro-4-hydroxypiperidin-1-yl)pyrimidin-4-yl)amino)-N-((3SR, 4SR)-3-fluorotetrahydro-2H-pyran-4-yl)-1H-pyrrolo[3,2-c]pyridine-3-carboxamide], 4.01 nM. The result for `CCNc1nc2cnc(Nc3ccnc(-c4cnn(S(=O)(=O)C5CC5)c4)n3)cc2n1C(C)C` [Example 556] reads 3.85 nM. Consider `C[C@H](O)c1nc2cnc(Nc3ccnc(N4CC[C@H](O)[C@H](F)C4)n3)cc2n1[C@@H](C)C(F)(F)F` [Example 686], for which the Ki was 18.5 nM.
